Measurements as given in ChEMBL document CHEMBL5055679, “Discovery of a Novel Androgen Receptor Antagonist Manifesting Evidence to Disrupt the Dimerization of the Ligand-Binding Domain via Attenuating the Hydrogen-Bonding Network Between the Two Monomers” (J Med Chem, 2021).
Activity calls are given as the source filed them. The rule behind the calls is not given here.

What was measured:
[1] = target: T1, Androgen receptor (Homo sapiens) (UniProt P10275); assay: Antagonist activity at androgen receptor in human LNCaP cells assessed as inhibition of DHT-induced AR nuclear translocation at 10 uM after 12 hrs by immunofluorescence assay; type: cell-based; conditions: filed as antagonist
T1 sequence (whole entry): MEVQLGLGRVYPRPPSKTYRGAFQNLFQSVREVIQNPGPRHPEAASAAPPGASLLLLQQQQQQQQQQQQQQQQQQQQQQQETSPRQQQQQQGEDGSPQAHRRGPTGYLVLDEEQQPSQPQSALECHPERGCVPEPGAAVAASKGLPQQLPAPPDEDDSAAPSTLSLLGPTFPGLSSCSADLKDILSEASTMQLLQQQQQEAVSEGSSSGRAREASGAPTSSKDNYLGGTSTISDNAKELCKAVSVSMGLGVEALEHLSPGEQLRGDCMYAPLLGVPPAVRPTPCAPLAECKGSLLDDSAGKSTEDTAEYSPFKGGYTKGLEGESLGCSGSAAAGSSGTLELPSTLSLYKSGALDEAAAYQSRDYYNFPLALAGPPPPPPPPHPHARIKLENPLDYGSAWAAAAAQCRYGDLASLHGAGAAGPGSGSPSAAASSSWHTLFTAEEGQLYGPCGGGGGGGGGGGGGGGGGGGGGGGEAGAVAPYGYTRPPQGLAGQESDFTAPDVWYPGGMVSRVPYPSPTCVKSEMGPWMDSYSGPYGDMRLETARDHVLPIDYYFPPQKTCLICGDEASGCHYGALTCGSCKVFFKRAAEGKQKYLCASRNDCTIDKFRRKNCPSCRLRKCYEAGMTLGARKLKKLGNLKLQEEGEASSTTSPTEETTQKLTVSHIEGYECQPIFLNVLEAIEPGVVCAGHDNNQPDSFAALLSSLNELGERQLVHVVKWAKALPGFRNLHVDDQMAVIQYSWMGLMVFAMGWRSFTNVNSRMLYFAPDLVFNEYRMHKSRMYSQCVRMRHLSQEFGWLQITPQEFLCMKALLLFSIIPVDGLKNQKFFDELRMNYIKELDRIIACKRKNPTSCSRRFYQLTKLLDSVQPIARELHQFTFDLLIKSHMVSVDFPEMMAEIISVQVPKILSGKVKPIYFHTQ

CWR22R = assay: Cytotoxicity against human 22Rv1 cells assessed as reduction in cell viability incubated for 72 hrs by MTT assay; type: functional, cell-based
[2] = target: T2, Progesterone receptor (Homo sapiens) (UniProt P06401); assay: Antagonist activity at progesterone receptor in human HEK293T cells assessed as reduction in […] luciferase activity by dual-Glo luciferase assay; type: cell-based
T2 sequence (whole entry): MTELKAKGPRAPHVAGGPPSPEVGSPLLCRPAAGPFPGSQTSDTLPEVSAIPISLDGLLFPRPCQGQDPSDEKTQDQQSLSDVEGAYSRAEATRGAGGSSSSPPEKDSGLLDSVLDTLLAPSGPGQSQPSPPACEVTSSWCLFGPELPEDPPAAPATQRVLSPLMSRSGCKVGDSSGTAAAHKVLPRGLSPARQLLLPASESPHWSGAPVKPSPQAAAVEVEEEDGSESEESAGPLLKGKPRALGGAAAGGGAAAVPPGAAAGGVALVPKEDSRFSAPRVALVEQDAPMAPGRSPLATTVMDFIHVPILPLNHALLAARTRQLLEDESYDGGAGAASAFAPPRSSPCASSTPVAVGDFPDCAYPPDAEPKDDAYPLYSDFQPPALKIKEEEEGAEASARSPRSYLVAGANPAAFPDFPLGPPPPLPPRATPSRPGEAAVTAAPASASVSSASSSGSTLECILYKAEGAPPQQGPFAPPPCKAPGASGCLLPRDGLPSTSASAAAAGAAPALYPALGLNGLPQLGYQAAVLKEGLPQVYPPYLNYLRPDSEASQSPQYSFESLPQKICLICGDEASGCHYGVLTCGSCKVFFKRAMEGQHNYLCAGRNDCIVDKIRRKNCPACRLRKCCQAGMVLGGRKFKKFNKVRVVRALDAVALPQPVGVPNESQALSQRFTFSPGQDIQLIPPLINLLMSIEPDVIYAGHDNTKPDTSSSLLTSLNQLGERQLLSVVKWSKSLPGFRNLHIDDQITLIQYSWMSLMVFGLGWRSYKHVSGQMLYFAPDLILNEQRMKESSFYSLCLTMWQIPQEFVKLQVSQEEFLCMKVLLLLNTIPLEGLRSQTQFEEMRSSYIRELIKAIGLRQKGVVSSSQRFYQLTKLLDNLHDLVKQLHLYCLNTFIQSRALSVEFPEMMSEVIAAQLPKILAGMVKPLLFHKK

[3] = target: T2, Progesterone receptor (Homo sapiens); assay: Agonist activity at progesterone receptor in human HEK293T cells by dual-Glo luciferase assay; type: cell-based
GES1 = assay: Cytotoxicity against human GES1 cells assessed as reduction in cell viability incubated for 72 hrs by MTT assay; type: cell-based; conditions: ges1, 72 h
HepG2 = assay: Cytotoxicity against human HepG2 cells assessed as reduction in cell viability at 50 uM incubated for 72 hrs by MTT assay; type: functional, cell-based
NIH3T3 = assay: Cytotoxicity against mouse NIH3T3 cells assessed as reduction in cell viability incubated for 72 hrs by MTT assay; type: cell-based; conditions: nih3t3, 72 h
HeLa = assay: Cytotoxicity against human HeLa cells assessed as reduction in cell viability at low concentration incubated for 72 hrs by MTT assay; type: functional, cell-based

Activity [1]: Active
Activity [2]: inactive
Activity [3]: inactive
Compound: O=c1cc(C(F)(F)F)c2ccc(OCc3ccc(Br)cc3)cc2o1
Activity (CWR22R): Active
Activity (GES1): Non-Toxic
Activity (HepG2): Active
Activity (NIH3T3): Non-Toxic
Activity (HeLa): inactive
